Experimental data taken from paper PMC12527977, “Discovery of a novel tetrapeptide as glucose homeostasis modulator with bifunctionalities of targeting DPP‐IV and microbiota” (iMeta, 2025).
“And” between values parts separate entries of the source, which are not always exact repeats. Equal entries are not always repeated. Structures can show the parent of a compound that is named as a salt. Where two headings read alike, the source gives them in different places. Where a SMILES comes first, the peptide text is derived from it.

What was measured:
[1] = molecular target: T1, DPP-IV (Homo sapiens, UniProt P27487); assay: DPP-IV inhibitory activity of peptides (DPP-IV-Glo Protease Assay Kit); format: biochemical; parameters: purchased QiZheng Biotech (Shanghai, China) IBDPP0901; conditions: for DPP-IV inhibitory activity: DPP-IV-Glo Protease Assay Kit, control = 0, sheet S2F, in % (unit assumed); for IC50: read-out: IC50
Target sequence in this assay (P27487 whole entry): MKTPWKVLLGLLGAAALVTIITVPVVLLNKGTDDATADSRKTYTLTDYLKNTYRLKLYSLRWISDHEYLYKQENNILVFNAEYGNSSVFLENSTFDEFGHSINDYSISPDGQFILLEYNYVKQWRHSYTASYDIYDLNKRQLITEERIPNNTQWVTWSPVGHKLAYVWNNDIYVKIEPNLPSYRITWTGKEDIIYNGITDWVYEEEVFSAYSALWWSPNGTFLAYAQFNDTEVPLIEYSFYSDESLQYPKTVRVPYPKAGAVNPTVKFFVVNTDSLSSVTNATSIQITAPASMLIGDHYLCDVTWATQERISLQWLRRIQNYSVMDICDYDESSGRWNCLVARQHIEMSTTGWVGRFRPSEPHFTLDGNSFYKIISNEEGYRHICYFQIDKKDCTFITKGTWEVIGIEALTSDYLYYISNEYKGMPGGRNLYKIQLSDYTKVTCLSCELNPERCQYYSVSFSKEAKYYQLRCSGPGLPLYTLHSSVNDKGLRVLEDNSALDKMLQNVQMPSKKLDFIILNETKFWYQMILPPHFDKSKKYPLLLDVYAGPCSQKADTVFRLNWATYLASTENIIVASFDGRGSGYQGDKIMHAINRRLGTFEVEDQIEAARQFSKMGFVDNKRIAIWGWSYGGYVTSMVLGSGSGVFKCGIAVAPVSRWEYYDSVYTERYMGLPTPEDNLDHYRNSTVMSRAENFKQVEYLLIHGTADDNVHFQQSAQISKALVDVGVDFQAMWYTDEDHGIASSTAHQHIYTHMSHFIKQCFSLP

[2] = test system: porcine pepsase and trypsase; assay: Simulated digestive stability of peptides (pepsase then trypsase); format: in vitro ADME; conditions: in words; 5.0 mg/mL peptide, pepsase 5000 U/mL pH 3.0 37 °C 2 h, then trypsase 100 U/mL pH 7.0 37 °C 2 h, LC-MS
Protocol: (§1) The in vitro digestibility of the peptides was determined according to the method described by Ohanenye et al. with some modifications. Briefly, 5.0 mg/mL peptides were mixed with 5000 U/mL porcine pepsase (pH 3.0). The mixture was incubated with continuous shaking in a water bath at 37 ℃ for 2 h. Then, the mixture was adjusted to pH 7.0, and a final concentration of 100 U/mL trypsase was added, followed by continuous shaking at 37 ℃ for another 2 h. After digestion, the enzyme was inactivated, and the mixture was incubated in a water bath (100 ℃) for 20 min. Subsequently, the mixture was centrifuged at 6000 rpm for 20 min, after which the supernatants were collected for further analysis. The concentrations of peptides in the digestions and TPH were determined via AB SCIEX QTrap 6600+ (AB Sciex, Framingham, Massachusetts).

[3] = as above; format: in vitro ADME, porcine; conditions: pig, relative to basal 100, sheet S2H; for remaining at 4 h, 5 mg/mL: pH 7, simulated digestion, after pepsase then trypsase, read-out: Peptide remaining, Trypsase; for remaining at 2 h, 5 mg/mL: porcine pepsase (simulated gastric digestion), pH 3, simulated digestion, after porcine pepsase, read-out: Peptide remaining, Pepsase
Protocol: as §1

[4] = test system: gut microbiota, A. muciniphila; assay: HFD-fed mice, TPH or sitagliptin 8 weeks: gut microbiota (16S rRNA); format: in vivo, mouse; conditions: in words, 8 weeks p.o.
From the text: To evaluate the hypoglycaemic activity of TPH, all mice were fed a high-fat diet (HFD, Research Diets, cat# D12492). […] Raw sequencing data were processed with QIIME2. In brief, the forward and reverse reads each were truncated at 200 bases. Taxonomy was assigned using the Greengenes reference (version 13.8) database. Analyses of alpha diversity (one-way ANOVA followed by Tukey’s post hoc test), beta diversity (weighted UniFrac distance followed by ANOSIM test), and bacterial taxonomic distributions were performed using MicrobiomeAnalyst.

[5] = test system: HFD-fed C57BL/6J mice; assay: HFD-fed mice, TPH/sitagliptin/HSP 8 weeks: plasma NEFA, TG, TC, HDL-c, LDL-c; format: in vivo, mouse; conditions: individual animals, n = 6, sheet S1U, listed as Sit
Protocol: (§2) To evaluate the hypoglycaemic activity of TPH, all mice were fed a high-fat diet (HFD, Research Diets, cat# D12492).
The levels of plasma total cholesterol (TC), triacylglycerol (TG), high-density lipoprotein cholesterol (HDL-c), low-density lipoprotein cholesterol (LDL-c), nonesterified fatty acid (NEFA), tumour necrosis factor α (TNF α), and interleukin-1β (IL-1β) were determined by commercial kit (Nanjing Jiancheng Bioengineering Institute, Nanjing, China).

[6] = test system: HFD-fed C57BL/6J mice; assay: HFD-fed mice, TPH/sitagliptin/HSP 8 weeks: FBG, OGTT, fasting insulin, HOMA-IR; format: in vivo, mouse; parameters: unit not given here; conditions: 8 weeks p.o. (Sit 12.5, TPH 80, HSP 320 mg/kg)
Protocol: as §2
Oral glucose tolerance tests (OGTTs) were conducted following a 6-hour fasting period in mice. Blood glucose levels were assessed using a glucometer on tail vein blood samples at 0, 15, 30, 60, and 90 min after oral glucose administration with a dosage of 1.5 g/kg body weight. For insulin tolerance tests (ITTs), mice were intraperitoneal injected with insulin (0.8 U/kg body weight) after 6 h of fasting. […] The levels of active GLP-1, total GLP-1, and insulin were measured using the corresponding kits and normalized to the protein concentration (via a BCA protein assay).

[7] = test system: A. muciniphila; assay: HFD-fed mice, VAMP and/or benzydamine 4 weeks: A. muciniphila abundance in faeces (qPCR); format: in vivo, mouse; conditions: in words, 50 mg/kg three times per week for 4 weeks
[8] = test system: A. muciniphila; assay: Effect of different drugs (50 μM) on the growth of A. muciniphila; format: cell-based, Akkermansia muciniphila; conditions: in words; drugs at 50 μM
[9] = molecular target: T1, DPP-IV; assay: Surface plasmon resonance (Biacore 8K, CM5 chip, 25 °C); format: binding; parameters: purchased QiZheng Biotech (Shanghai, China) IBDPP0901; conditions: SPR, Table S3; read-out: KD values

DPP-IV inhibitory activity ([1]; replicate 1)	DPP-IV inhibitory activity ([1]; replicate 2)	DPP-IV inhibitory activity ([1]; replicate 3)	IC50 ([1]; Table S3) [µM]	remaining at 4 h, 5 mg/mL ([3]; replicate 1) [%]	remaining at 4 h, 5 mg/mL ([3]; replicate 2) [%]	remaining at 4 h, 5 mg/mL ([3]; replicate 3) [%]	remaining at 2 h, 5 mg/mL ([3]; replicate 1) [%]	remaining at 2 h, 5 mg/mL ([3]; replicate 2) [%]	remaining at 2 h, 5 mg/mL ([3]; replicate 3) [%]	SMILES	Resistance to simulated gastric pepsase and trypsase digestion [2]	Kd [9] [µM]	also measured
35.1258	29.3845	34.8747	350	85.1	83.4	87.9	94.6	92.4	92.7	NC(=O)CC[C@H](NC(=O)[C@@H]1CCCN1C(=O)[C@@H](N)Cc1ccccc1)C(=O)N[C@@H](CO)C(=O)O [FPQS] (H-FPQS-OH)	readily resistant		IC50 ([1]; source data of heatmap Fig 1J): 80 µM
										N[C@@H](CC(=O)N1CCn2c(nnc2C(F)(F)F)C1)Cc1cc(F)c(F)cc1F [Sitagliptin]			Abundance of A. muciniphila in the intestine [4]: no effect; Plasma HDL-c [5]: 2.289 and 2.058 and 2.182 and 2.361 and 2.149; AUC of the OGTT ([6]; mouse 1 of group): 27513; Levels of fasting insulin ([6]; mouse 1 of group): 31.21; AUC of the OGTT ([6]; mouse 2 of group): 22668; Levels of fasting insulin ([6]; mouse 2 of group): 34.42; AUC of the OGTT ([6]; mouse 3 of group): 23854.5; Levels of fasting insulin ([6]; mouse 3 of group): 37.914; AUC of the OGTT ([6]; mouse 4 of group): 21897; Levels of fasting insulin ([6]; mouse 4 of group): 32.691; AUC of the OGTT ([6]; mouse 5 of group): 22426.5; Levels of fasting insulin ([6]; mouse 5 of group): 36.21; AUC of the OGTT ([6]; mouse 6 of group): 19386; Levels of fasting insulin ([6]; mouse 6 of group): 32.691
										CN(C)CCCOc1nn(Cc2ccccc2)c2ccccc12 [benzydamine, benzydamine hydrochloride]			Abundance of A. muciniphila in faeces [7]: reduced the abundance of A. muciniphila to an extremely low level; Growth of A. muciniphila [8]: specifically inhibit the growth of A. muciniphila
63.2506	57.5085	57.0946	350	9.2	9.52	7.78	12.2	14.3	10.4	CC(C)[C@H](N)C(=O)N[C@@H](C)C(=O)N[C@@H](CC(=O)O)C(=O)N[C@@H](Cc1c[nH]c2ccccc12)C(=O)O [VADW] (H-VADW-OH)		14	

SMILES	DPP-IV inhibitory activity ([1]; replicate 1)	DPP-IV inhibitory activity ([1]; replicate 2)	DPP-IV inhibitory activity ([1]; replicate 3)	IC50 ([1]; Table S3) [µM]	remaining at 4 h, 5 mg/mL ([3]; replicate 1) [%]	remaining at 4 h, 5 mg/mL ([3]; replicate 2) [%]	remaining at 4 h, 5 mg/mL ([3]; replicate 3) [%]	remaining at 2 h, 5 mg/mL ([3]; replicate 1) [%]	remaining at 2 h, 5 mg/mL ([3]; replicate 2) [%]	remaining at 2 h, 5 mg/mL ([3]; replicate 3) [%]	Resistance to simulated gastric pepsase and trypsase digestion [2]	Kd [9] [µM]	also measured
CC(C)C[C@H](NC(=O)[C@H](CC(N)=O)NC(=O)[C@@H](N)Cc1ccc(O)cc1)C(=O)N1CCC[C@H]1C(=O)O [YNLP] (H-YNLP-OH)	22.415	17.2115	22.0674	510	98.7	99	100	97.5	99.8	100	readily resistant	100	
